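All cell lines were grown in 96-well plates and treated with compound for 48 hours. Here, GI50 denotes the concentration required for 50% inhibition of growth.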 Activity calls are given as the source filed them. Cut-off read from the data, not from the text of the source: active = GI50 up to about 1.1 µM and inactive = higher.
How the values were obtained:
Assay in all cases: NCI-60 cell line screen, 48 h
[1] = tested on: ACHN
[2] = tested on: EKVX
[3] = tested on: HCC 2998
[4] = tested on: HCT-116
[5] = tested on: LOX IMVI
[6] = tested on: M14
[7] = tested on: MCF7
[8] = tested on: MDA-MB-231
[9] = tested on: MDA-MB-435
[10] = tested on: MDA-N
[11] = tested on: OVCAR-4
[12] = tested on: OVCAR-5
[13] = tested on: RXF 393
[14] = tested on: SF-295
[15] = tested on: SNB-19
[16] = tested on: SW-620
[17] = tested on: UACC-257
[18] = tested on: A498
[19] = tested on: T47D

Measured: GI50

Cc1cc(C)c(S(=O)(=O)N2CCCN(S(=O)(=O)c3c(C)cc(C)cc3C)OCCCON(S(=O)(=O)c3c(C)cc(C)cc3C)CCCN(S(=O)(=O)c3c(C)cc(C)cc3C)OCCCO2)c(C)c1
inactive: [1] > 100 µM | [2] > 100 µM | [3] > 100 µM | [4] > 100 µM | [5] > 100 µM | [6] > 100 µM | [7] > 100 µM | [8] > 100 µM | [9] > 100 µM | [10] > 100 µM | [11] > 100 µM | [12] > 100 µM | [13] 61.1 µM | [14] > 100 µM | [15] > 100 µM | [16] > 100 µM | [17] > 100 µM

CN(C)Nc1cc(=O)[nH]c(=O)[nH]1
inactive: [18] > 100 µM | [1] > 100 µM | [2] > 100 µM | [3] > 100 µM | [4] > 100 µM | [5] > 100 µM | [6] > 100 µM | [7] > 100 µM | [8] > 100 µM | [9] > 100 µM | [10] > 100 µM | [11] > 100 µM | [12] > 100 µM | [13] > 100 µM | [14] > 100 µM | [15] > 100 µM | [16] > 100 µM | [17] > 100 µM

Cc1ccc(S(=O)(=O)Nn2c(S)c(C#N)c(-c3ccc(Cl)cc3)c(C#N)c2=O)cc1
inactive: [18] 26.5 µM | [1] 31.6 µM | [2] 32.9 µM | [3] 38.8 µM | [4] 28.4 µM | [5] 29.9 µM | [6] 38.1 µM | [7] 44.6 µM | [8] 36.2 µM | [9] 27.1 µM | [11] 15.1 µM | [12] 50.1 µM | [13] 32.3 µM | [14] 32.9 µM | [15] 35.4 µM | [16] 22.4 µM | [17] 45.3 µM

CCOC(=O)/C(C#N)=C/c1ccnc2ccccc12
inactive: [18] > 100 µM | [1] > 100 µM | [2] > 100 µM | [3] > 100 µM | [4] 2.19 µM | [5] 15.6 µM | [6] 56.9 µM | [8] 83.9 µM | [9] 37.2 µM | [10] > 100 µM | [11] > 100 µM | [12] > 100 µM | [13] > 100 µM | [14] 93.1 µM | [15] 81.7 µM | [16] 9.79 µM | [19] > 100 µM | [17] > 100 µM

O=C(Nc1ccc(Br)c2ccccc12)c1ccc2ccccc2c1O
inactive: [18] 2.52 µM | [1] 3.09 µM | [2] 3.13 µM | [3] 5.64 µM | [4] 2.85 µM | [6] 4.63 µM | [7] 2.73 µM | [8] 3.27 µM | [10] 1.7 µM | [11] 19.4 µM | [12] 2.75 µM | [14] 2.05 µM | [15] 4.17 µM | [16] 2.26 µM | [19] 1.73 µM | [17] 1.95 µM

O=c1[nH]c(=O)n(C2CC(O)C(CO)O2)cc1OC/C=C/Cc1ccccc1 (stereo not drawn)
inactive: [1] > 100 µM | [2] > 100 µM | [4] > 100 µM | [5] > 100 µM | [6] > 100 µM | [7] > 100 µM | [8] > 100 µM | [9] > 100 µM | [11] > 100 µM | [12] > 100 µM | [13] > 100 µM | [14] > 100 µM | [15] > 100 µM | [19] > 100 µM | [17] > 100 µM

COC(=O)c1cc(-c2c[nH]cc2C(=O)OCc2ccccc2)cn1S(=O)(=O)c1ccc(C)cc1
inactive: [18] > 100 µM | [1] > 100 µM | [2] 8.89 µM | [3] > 100 µM | [4] > 100 µM | [5] 22.4 µM | [6] > 100 µM | [7] 22.3 µM | [8] > 100 µM | [10] > 100 µM | [11] > 100 µM | [12] > 100 µM | [13] > 100 µM | [14] > 100 µM | [15] > 100 µM | [19] 4.71 µM | [17] 7.93 µM

COc1cc(C2=NNC(=O)c3ccccc3N2c2nc(-c3cccs3)nc3ccc(Br)cc23)cc(OC)c1OC
inactive: [18] 34.8 µM | [1] 7.11 µM | [2] 13 µM | [4] 12.4 µM | [6] 17.1 µM | [7] 2.33 µM | [8] 17.9 µM | [9] 6.82 µM | [11] 4.55 µM | [12] 40.1 µM | [14] 5.06 µM | [15] 22.6 µM | [16] 18.4 µM | [19] 15.1 µM | [17] 21.5 µM

COc1ccc(C2=Nc3c(nc(OC)[nH]c3=O)NC(c3ccccc3)C2)cc1 (stereo not drawn)
inactive: [18] 32.6 µM | [1] 27.5 µM | [2] 33.9 µM | [4] 28.4 µM | [5] 26.6 µM | [6] 27.3 µM | [7] 21.9 µM | [8] 20.7 µM | [9] 33.3 µM | [10] 27 µM | [12] 46.6 µM | [13] 29.7 µM | [14] 50 µM | [15] 30.5 µM | [16] 24.1 µM | [17] 49.9 µM

O=C1CSC(c2cccc([N+](=O)[O-])c2)N1c1ccc(-c2ccc(-n3c(-c4ccccc4)nc4ccccc4c3=O)cc2)cc1 (stereo not drawn)
inactive: [18] 64.7 µM | [1] 27 µM | [2] 36.3 µM | [3] > 100 µM | [4] 24.7 µM | [5] 34 µM | [6] 36.2 µM | [7] 17.3 µM | [8] 29.9 µM | [9] 27 µM | [11] 25.2 µM | [12] > 100 µM | [14] 45.8 µM | [15] 59.6 µM | [16] 40 µM | [19] 17.9 µM | [17] 83.2 µM

N#Cc1c2c(c(Nc3ccc(Cl)cc3)n3c1nc1ccccc13)CCCC2
inactive: [18] > 94.6 µM | [1] 18.6 µM | [2] 48.3 µM | [3] 32.9 µM | [4] 8.65 µM | [5] > 63.5 µM | [6] > 83.2 µM | [7] 7.59 µM | [8] > 86.9 µM | [9] > 100 µM | [11] 16.2 µM | [12] > 100 µM | [13] 33.7 µM | [14] 28.5 µM | [15] 23.1 µM | [16] > 61 µM | [19] 33.1 µM | [17] 48 µM

Cc1c(-c2ccccc2)n(C)c2cn[nH]c(=O)c12
inactive: [18] 30.4 µM | [1] 44.3 µM | [2] 18.1 µM | [3] 27.8 µM | [4] 35.9 µM | [5] 18.7 µM | [6] 42.5 µM | [7] 31.5 µM | [8] 17.9 µM | [9] 33.1 µM | [10] 33.5 µM | [12] 52.2 µM | [14] 25.2 µM | [15] > 100 µM | [16] 47.1 µM | [17] 45.5 µM

C=CCN1C(=O)/C(=C/c2ccccc2)N=C1SC/C=C/C
inactive: [18] 43.7 µM | [1] 80.4 µM | [3] 28.3 µM | [4] 34.5 µM | [5] 49.1 µM | [6] 71.1 µM | [7] 33.1 µM | [8] 86.7 µM | [9] 40.8 µM | [11] 31.2 µM | [13] 15.2 µM | [14] 61.2 µM | [15] > 100 µM | [16] 46.1 µM | [19] 20.2 µM | [17] 28.3 µM

CCN(CC)CCN(C(=O)C(C)(C)C)c1ccccc1N
inactive: [1] > 100 µM | [2] > 100 µM | [4] > 100 µM | [6] > 100 µM | [7] > 100 µM | [10] > 100 µM | [11] > 100 µM | [12] > 100 µM | [13] > 100 µM | [14] > 100 µM | [15] > 100 µM | [16] > 100 µM | [17] > 100 µM

CC(=O)Nc1ccc2cc3c(nc2n1)c1cccnc1n3S(=O)(=O)c1ccccc1
inactive: [18] > 100 µM | [1] > 100 µM | [2] > 100 µM | [3] > 100 µM | [4] 1.36 µM | [5] 2.66 µM | [6] > 100 µM | [7] > 100 µM | [8] > 100 µM | [9] > 100 µM | [10] > 100 µM | [11] > 100 µM | [12] > 100 µM | [13] > 100 µM | [14] > 100 µM | [15] > 100 µM | [16] > 100 µM | [17] > 100 µM

O=C(Nc1ccc(Cl)cc1)NS(=O)(=O)c1c(-c2ccccc2)oc2ccccc2c1=O
inactive: [18] 33 µM | [1] 27.1 µM | [2] > 100 µM | [3] 54.2 µM | [4] 92.7 µM | [5] 9.25 µM | [9] 75 µM | [10] 44.7 µM | [11] > 100 µM | [12] > 100 µM | [13] > 100 µM | [14] 36.2 µM | [15] > 100 µM | [16] > 100 µM | [19] 48 µM | [17] > 100 µM

Reference: ChEMBL document CHEMBL1201862, “PubChem BioAssay data set” (2004)
